The record followed here is US5231091A, “Bis-arylphosphate ester antagonists of platelet activating factor” (priority 1992, dated 1993).

The target in one test is T1, PAF receptor (Oryctolagus cuniculus, UniProt G1TEI7).
T1 construct: endogenous in cells; host or cells: rabbit platelets (male New Zealand White)
In words: Inhibition of PAF-induced aggregation in rabbit platelet rich plasma. It is filed as cell-based, rabbit (male New Zealand White). As to the method:
Test compounds were evaluated as PAF receptor antagonists in vitro by measuring inhibition of PAF (platelet activating factor) induced platelet aggregation. Platelet aggregation was measured by a modification of the method described in A. Wissner, et. al., J. Med. Chem., 27, 1174, 1984.
Approximately 120-240 ml of blood were collected by cardiac puncture from unanesthetized male New Zealand White rabbits (Whaley's Summit View Farms, Belvedere, N.J.) with the use of 3.2% sodium citrate anticoagulant (1 part of citrate/10 parts of blood). All syringes and pipets were plastic. The blood was gently mixed and immediately centrifuged at 800 rpm for 10-15 minutes at room temperature to recover the platelet rich plasma (PRP). Platelet poor plasma (PPP) was prepared by centrifuging PRP at 2800 rpm for 10 minutes at room temperature.
Dilutions (1:3000) of PRP in Isoton® diluent were made and platelet counts were determined on a Coulter Thrombocounter which was standardized with platelet reference standards (Interscience Platelet Control, Portland, Oreg.). PRP platelet counts were adjusted to approximately 400,000-500,000 platelets/μl by the addition of PPP.
L-PAF was obtained from Calbiochem. A stock solution of 1-2 E-3M was prepared in 10% ethanol in water or 100% methanol and serial working dilutions were made using phosphate buffered saline (PBS). 1-2 E-3M stock solutions of test compounds were prepared in 100% methanol and serially diluted in PBS. All solutions were made up in plastic tubes, stored on ice and protected from heat and light. Solutions were prepared fresh or frozen at -20° C. and used within 48 hours.
Incubation mixtures consisted of 400 μl PRP, 50 μl of PBS diluent or test compound and 50 μl of PAF agonist. More specifically, 400 μl of PRP was stabilized in a cuvette for 1-2 minutes at 37° C. in the aggregometer to achieve a stable baseline, then 50 μl of PBS or test compound, was added and incubated for 5 minutes before addition of the challenge concentration of PAF (final concentration of 5E-8M or 1E-7M, as determined from the dose response curve for PAF for that experiment). Aggregation was monitored for 5 minutes. Samples containing test compound or diluent were run simultaneously for comparison. Test compounds were initially evaluated at a screening concentration of 1E-5M.
The recording equipment consisted of a dual channel Chronolog aggregometer connected to a dual channel 10 MV full scale deflection Omniscribe chart recorder (Houston Instruments). […] The bead suspension was used to set the 0% light transmission mark and clear water was used to set the 100% light transmission mark. These limits defined a full scale deflection. The aggregation traces were analyzed by a digitizing method (C. Kohler and B. Zoltan, J. Pharm. Methods, 12, 113, 1984) with x, y coordinate data stored in a computer file. A suitable program computed parameters of interest such as the magnitude of aggregation.

The next test deals with PAF induced lethality. In words: PAF induced lethality in mice. It counts as in vivo. The settings on record: I.P. 10 mg/kg; corrected for control lethality. Here is the method: PAF given I.V. to mice causes an immediate hypotensive shock leading to death in 1 hour or less. Compounds were given intraperitoneally or P.O. at various times before the PAF challenge. Animals alive after 2 hours were counted and the activity of test compounds expressed as % survival corrected for any control (saline treated) animals which survived the PAF challenge.

The mark [1] stands for this setting: rabbit platelet rich plasma, PAF challenge 5E-8M, number of experiments in parentheses, read-out: IC50 inhibition of PAF-induced aggregation.

pIC50: −log10 of the molar value. Structures can show the parent of a compound that is named as a salt. Where two headings read alike, the source gives them in different places.

T1 sequence (G1TEI7 1-342): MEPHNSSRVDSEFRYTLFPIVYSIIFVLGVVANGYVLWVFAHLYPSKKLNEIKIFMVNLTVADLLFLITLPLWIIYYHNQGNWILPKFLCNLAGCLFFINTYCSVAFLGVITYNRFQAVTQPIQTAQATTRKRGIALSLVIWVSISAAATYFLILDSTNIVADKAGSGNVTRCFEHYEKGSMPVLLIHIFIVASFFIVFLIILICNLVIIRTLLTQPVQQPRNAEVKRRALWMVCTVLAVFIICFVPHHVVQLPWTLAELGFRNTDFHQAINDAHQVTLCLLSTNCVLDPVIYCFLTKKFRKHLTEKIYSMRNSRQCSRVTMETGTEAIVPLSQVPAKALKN

Take `CCCCCCCCCCCCCCOc1cccc(OP(=O)([O-])Oc2cccc(C[n+]3cccc4ccccc43)c2)c1C(=O)OC` [1-[[3-Hydroxy[2-(methoxycarbonyl)-3-(tetradecyloxy)-phenoxy]phosphinyl]oxy]phenyl]methyl]quinolinium, hydroxide, inner salt]: the pIC50 at PAF receptor (setting [1]) is 5.20.
The same measure, in the same setting: to `CCCCCCCCCCCCCCOc1cccc(OP(=O)([O-])Oc2cccc(C[n+]3ccccc3)c2)c1OC` [1-[[3-[[Hydroxy[2-methoxy-3-(tetradecyloxy)phenoxy]-phosphinyl]oxy]phenyl]methyl]-pyridinium, hydroxide, inner salt] belongs 3.78; to `CCCCCCCCCCCCCCOc1cccc(OP(=O)([O-])Oc2cccc(C[n+]3cccc4ccccc43)c2)c1OC` [1-[[3-[[Hydroxy[2-methoxy-3-(tetradecyloxy)phenoxy]-phosphinyl]oxy]phenyl]methyl]-quinolinium, hydroxide, inner salt], 5.10.
Same read-out and setting: the result for `CCCCCCCCCCCCCCCCOc1cccc(OP(=O)([O-])Oc2cccc(C[n+]3ccccc3)c2)c1` [1-[[3-[[[3-(Hexadecyloxy)phenoxy]hydroxyphosphinyl]-oxy]phenyl]methyl]-pyridinium, hydroxide inner salt] reads 4.81; that for `CCCCCCCCCCCCCCCCOc1cccc(OP(=O)(O)Oc2cccc(C[n+]3cccc4ccccc43)c2)c1` [1-[[3-[[[3-(Hexadecyloxy)phenoxy]hydroxyphosphinyl]-oxy]phenyl]methyl]-quinolinium, hydroxide], 4.66; that for `CCCCCCCCCCCCCCCCOc1cccc(OP(=O)([O-])Oc2cccc(C[n+]3cccc4ccccc43)c2)c1C` [1-[[3-[[[3-(hexadecyloxy)-2-methylphenoxy]hydroxyphosphinyl]oxy]phenyl]methyl]quinolinium], 4.53.
`CCCCCCCCCCCCCCOc1cccc(OP(=O)([O-])Oc2cccc(C[n+]3ccc4ccccc4c3)c2)c1OC` [2-[[3-[[Hydroxy[2-methoxy-3-(tetradecyloxy)phenoxy]-phosphinyl]oxy]phenyl]methyl]-isoquinolinium, hydroxide, inner salt]: the pIC50 at PAF receptor (setting [1]) was 4.70.
Still for that read-out and setting: to `CCCCCCCCCCCCCCCCOc1cccc(OP(=O)([O-])Oc2ccccc2C[n+]2ccsc2)c1` [3-[[2-[[[3-(Hexadecyloxy)phenoxy]hydroxyphosphinyl]oxy]phenyl]methyl]-thiazolium, hydroxide, inner salt] belongs 5.20; to `CCCCCCCCCCCCCCOc1ccccc1OP(=O)([O-])Oc1cccc(C[n+]2ccsc2)c1` [3-[[3-[ [Hydroxy[2-(tetradecyloxy)phenoxy]phosphinyl]-oxy]phenyl]methyl]thiazolium, hydroxide, inner salt], 4.24; to `CCCCCCCCCCCCCCc1cccc(OP(=O)([O-])Oc2cccc(C[n+]3ccsc3)c2)c1` [3-[[3-[[Hydroxy(3-tetradecylphenoxy)phosphinyl]oxy]-phenyl]methyl]thiazolium, hydroxide, inner salt], 4.73.
Consider `CCCCCCCCCCCCCCOc1cccc(OP(=O)([O-])Oc2cccc(C[n+]3ccsc3)c2)c1C(=O)OC` [3-[[3-[[Hydroxy[2-(methoxycarbonyl)-3-(tetradecyloxy)-phenoxy]phosphinyl]oxy]phenyl]methyl]-thiazolium, hydroxide, inner salt], for which the pIC50 on PAF receptor (setting [1]) was 5.57. Also, the “PAF induced lethality, % protection” value in the test on PAF induced lethality came out at 12%.
Taken in the same sequence, the figures for `CCCCCCCCCCCCCCOc1cccc(OP(=O)([O-])Oc2cccc(C[n+]3csc(C)c3)c2)c1C(=O)OC` [3-[[3-[[Hydroxy[2-(methoxycarbonyl)-3-(tetradecyloxy)phenoxy]phosphinyl]oxy]phenyl]methyl]-5-methylthiazolium, hydroxide, inner salt] were 6.28 and 0%.
On PAF receptor, `CCCCCCCCCCCCCCCCCCNC(=O)Oc1cccc(OP(=O)([O-])Oc2cccc(C[n+]3csc(C)c3)c2)c1C` [3-[[3-[[Hydroxy[2-methyl-3-[[(octadecylamino)carbonyl]oxy]phenoxy]phosphinyl]oxy]phenyl]methyl]-5-methylthiazolium, hydroxide, inner salt] gave a pIC50 of 5.74.
The same measure, in the same setting: the result for `CCCCCCCCCCCCCCCCCCNC(=O)Oc1cccc(OP(=O)([O-])Oc2cccc(C[n+]3ccsc3)c2)c1C` [3-[[3-[[Hydroxy[2-methyl-3-[[(octadecylamino)carbonyl]oxy]phenoxy]phosphinyl]oxy]phenyl]methyl]thiazolium, hydroxide, inner salt] reads 5.43.
Turning to `CCCCCCCCCCCCCCOc1cccc(OP(=O)([O-])Oc2cccc(C[n+]3csc(C)c3)c2)c1` [3-[[3-[[Hydroxy[3-(tetradecyloxy)phenoxy]phosphinyl]-oxy]phenyl]methyl]-5-methyl-thiazolium, hydroxide, inner salt], the pIC50 on PAF receptor (setting [1]) was 5.05.
The same measure, in the same setting: the result for `CCCCCCCCCCCCCCOc1cccc(OP(=O)([O-])Oc2cccc(C[n+]3ccsc3)c2)c1` [3-[[3-[[Hydroxy[3-(tetradecyloxy)phenoxy]phosphinyl]-oxy]phenyl]methyl]thiazolium, hydroxide, inner salt] reads 5.21; that for `Cc1c[n+](Cc2cccc(OP(=O)([O-])Oc3ccc(OCc4ccccc4)cc3)c2)cs1` [3-[[3-[[Hydroxy[4-(phenylmethoxy)phenoxy]phosphinyl]oxy]phenyl]methyl]-5-methyl-thiazolium, hydroxide, inner salt], 2.82.
Still for that read-out and setting: to `CCCCCCCCCCCCCCOc1cccc(COP(=O)([O-])Oc2cccc(C[n+]3ccsc3)c2)c1` [3-[[3-[[Hydroxy[[3-(tetradecyloxy)phenyl]methoxy]-phosphinyl]oxy]phenyl]methyl]thiazolium, hydroxide, inner salt] belongs 5.37; to `CCCCCCCCCCCCOc1cc(OP(=O)([O-])Oc2cccc(C[n+]3ccsc3)c2)c(C(C)(C)C)cc1C(C)(C)C` [3-[[3-[[[2,4-Bis(1,1-dimethylethyl)-5-(dodecyloxy)phenoxy]hydroxyphosphinyl]oxy]phenyl]methyl]thiazolium, hydroxide, inner salt], 4.52.
On to `CCCCCCCCCCCCOc1cc(C(C)(C)C)c(OP(=O)([O-])Oc2cccc(C[n+]3csc(C)c3)c2)cc1C(C)(C)C` [3-[[3-[[[2,5-Bis(1,1-dimethylethyl)-4-(dodecyloxy)phenoxy] hydroxyphosphinyl]oxy]phenyl]methyl]-5-methyl-thiazolium, hydroxide, inner salt], for which the pIC50 at PAF receptor (setting [1]) was 6.39. Also, the “PAF induced lethality, % protection” value in the test with PAF induced lethality came out at 36%.
As for `CCCCCCCCCCCCOc1cccc(OP(=O)([O-])Oc2cccc(C[n+]3ccsc3)c2)c1OC` [3-[[3-[[[3-(Dodecyloxy)-2-methoxyphenoxy]hydroxyphosphinyl]oxy]phenyl]methyl]thiazolium, hydroxide, inner salt], on PAF receptor (setting [1]), the pIC50 is 5.76.
The same measure, in the same setting: to `CCCCCCCCCCCCOc1cccc(OP(=O)([O-])Oc2cccc(C[n+]3ccsc3)c2)c1` [3-[[3-[[[3-(Dodecyloxy)phenoxy]hydroxyphosphinyl]-oxy]phenyl]methyl]thiazolium, hydroxide, inner salt] belongs 4.28.
As to `CCCCCCCCCCCCCCCCOc1ccc(OP(=O)([O-])Oc2cccc(C[n+]3ccsc3)c2)cc1` [3-[[3-[[[4-(Hexadecyloxy)phenoxy]hydroxyphosphinyl]-oxy]phenyl]methyl]thiazolium, hydroxide, inner salt], the pIC50 on PAF receptor (setting [1]) is 5.48. Besides, the “PAF induced lethality, % protection” value in the test on PAF induced lethality is 96%.
For the compound `CCCCCCCCCCCCOc1ccc2ccc(OP(=O)([O-])Oc3cccc(C[n+]4ccsc4)c3)cc2c1` [3-[[3-[[[[7-(dodecyloxy)-2-naphthalenyl]oxy]hydroxyphosphinyl]oxy]phenyl]methyl]thiazolium, hydroxide, inner salt], the pIC50 on PAF receptor (setting [1]) is 4.58.
Same read-out and setting: the result for `CCCCCCCCCCCCOc1cccc(OP(=O)([O-])Oc2cccc(C[n+]3cccc4ccccc43)c2)c1OC` [-[[3-[[[3-(Dodecyloxy)-2-methoxyphenoxy]hydroxyphosphinyl]oxy]phenyl]methyl]quinolinium, hydroxide, inner salt] reads 4.61.
